We go through one molecule from patent US20130287919A1, “METHOD OF USING DIETARY INGREDIENTS DIHYDROQUERCETIN (TAXIFOLIN), ARABINOGALACTAN AND ARABINOGALACTAN IN COMBINATION WITH DIHYDROQUERCETIN (TAXIFOLIN) FOR APPLICATIONS IN FOOD PRODUCTS” (FLAVITPURE, INC., priority 2012, published 2013).

Data set [1] can be described thus: oxygen radical absorbance capacity (ORAC) assay. The format is biochemical. The procedure:
FIGS. 6 and 7 illustrate ORAC and CAP-e antioxidant tests conducted on Dihydroquercetin (taxifolin). The ORAC test measures the scavenging capacity at 37° C. of peroxyl radical induced by 2,2 -azobis-(2-amidinopropane) dihydrochloride (AAPH) using fluorescence at a wavelength of 565 nm with excitation at 540 nm. The results are calculated and expressed as milimoles of Trolox equivalents per gram. This test is widely used for evaluation and comparison of the antioxidant capacity in natural products and extracts and has been successfully applied to bioavailability studies, showing increased antioxidant capacity in serum in test subjects after consumption of antioxidant-rich foods.
Two different but synergistic testing principles are shown in FIG. 6: (A) The oxygen radical absorbance capacity (ORAC) assay is a chemical test, in which interference with specific chemical reactions are measured; (B) The cell-based antioxidant protection in erythrocytes (CAP-e) assay reflects whether antioxidants can enter into and protect live cells from oxidative damage. Dihydroquercetin (taxifolin) has the ORAChydrophilic assay over 15,000 μmol TE/g.

In the next data set the test system is lipid peroxidation. To be noted: in vitro and ex vivo; cited from earlier work.
The conditions of data set [2]: concentration 0.001%; cooled samples, traditional recipe; day 7 of storage; cited from earlier work.
For data set [3] the following is noted: milks produced during the dry-lot regime; cited from earlier work.
The conditions of data set [4]: lard, cottonseed oil, and butter oil; cited from earlier work.
The subject of a further data set is rats. Conditions: high levels, long periods of time; cited from earlier work.
The test system of a further data set is serum and liver lipids. To be noted: following exposure to toxic ionizing radiation; cited from earlier work.

Each structure is given as a SMILES string. Where “and” joins values, the source holds several entries; their conditions need not be identical. Equal entries are not always repeated.

Turning to `O=C1c2c(O)cc(O)cc2OC(c2ccc(O)c(O)c2)C1O` (stereo not shown) [Dihydroquercetin (taxifolin)], the ORAChydrophilic assay result in data set [1] is “over 15,000 μmol TE/g”. In addition, the lipid peroxidation entry in the data set on lipid peroxidation is “inhibits”. The “peroxide values lower by” value in data set [2] was 57.1% and 58.60%. Also, the “development of spontaneous oxidation” value in data set [3] was “inhibited”. Besides, the antioxidant effect result in data set [4] is “effective antioxidant”. In addition, the toxic effects result in the data set on rats is given as “No toxic effects were observed”. In the data set on serum and liver lipids, the “peroxidation of serum and liver lipids” value is “inhibited”.
